# Reference: patent US20230381157A1, “RIFABUTIN FOR THE TREATMENT OF ACINETOBACTER BAUMANNII” (University of Southern California, priority 2018, published 2023)
# “Also recorded” adds a separate entry of the source. Read-outs that look alike come from different tables or passages of the source.
# Key:
# [1] = test system: A. baumannii; test: MIC, broth microdilution, A. baumannii clinical isolates / strain panel; format: cell-based, Acinetobacter baumannii; details: for MIC50 / MIC90: A. baumannii strain panel
# [2] = test system: A. baumannii LAC-4; format: in vivo, mouse; details: C3H mice, 10 mg/kg/daily or 1 mg/kg for 3 days, listed as RBT
# [3] = test system: A. baumannii ATCC 17978; test: IC50 dose response, inhibition of bacterial growth (BacTiter-Glo viability); format: cell-based, Acinetobacter baumannii; details: Acinetobacter baumannii, 11-point dose response
# [4] = test system: A. baumannii HUMC1; format: in vivo, mouse; details: for lung CFUs: lungs at 24 hrs post infection
# [5] = test system: K. pneumonia; test: MIC, broth microdilution; format: cell-based; details: Klebsiella pneumoniae, K. pneumonia KPC-KP1
# [6] = test system: A. baumannii HUMC1; test: IC50 dose response, inhibition of bacterial growth (BacTiter-Glo viability); format: cell-based, Acinetobacter baumannii; details: Acinetobacter baumannii, 11-point dose response
# [7] = test system: GFP expressing reporter strain of A. baumannii HUMC1; format: cell-based, Acinetobacter baumannii; details: addition of amino acids to RPMI vs RPMI alone; 6 hours
# [8] = test system: S. aureus LAC; test: microbe, parasite or virus in culture; format: cell-based; details: Staphylococcus aureus
# [9] = test system: A. baumannii; format: cell-based, Acinetobacter baumannii
# [10] = Murine neuropenic lung infection model; format: in vivo, mouse
# [11] = test system: S. aureus LAC; format: cell-based, Staphylococcus aureus; details: TSA
# [12] = test system: E. coli JJ1886; format: cell-based, Escherichia coli; details: TSA
# [13] = test system: HepG2; details: top screen hits; IC50 against A. baumannii HUMC1 in 50% serum
# [14] = test system: Acinetobacter baumannii; test: Galleria mellonella infection model; format: in vivo
# [15] = 5 mg/kg/daily for 3 days, oral gavage
# [16] = 5 mg/kg/daily for 3 days, oral gavage, listed as RBT
structure (smiles),measurement,setting,value
CO[C@H]1/C=C/O[C@@]2(C)Oc3c(C)c(O)c4c(c3C2=O)C2=NC3(CCN(CC(C)C)CC3)NC2=C(NC(=O)/C(C)=C\C=C\[C@H](C)[C@H](O)[C@@H](C)[C@@H](O)[C@@H](C)[C@H](OC(C)=O)[C@@H]1C)C4=O [rifabutin],fold more potent than rifampin (RIF),"[1]; A. baumannii, RPMI with serum",133 fold
same,Rifabutin MIC,"[1]; AB044, MHII",3.12 µg/mL
same,Rifabutin MIC,"[1]; AB044, RPMI",0.78 µg/mL
same,Rifabutin MIC,"[1]; AB046, MHII",0.19 µg/mL
same,Rifabutin MIC,"[1]; AB046, MHII (first line)",6.25 µg/mL
same,Rifabutin MIC,"[1]; AB307-0294, MHII",6.25 µg/mL
same,Rifabutin MIC,"[1]; AB307-0294, RPMI",< 0.05 µg/mL
same,Rifabutin MIC,"[1]; AB15827, MHII",3.13 µg/mL
same,Rifabutin MIC,"[1]; AB15827, RPMI",0.2 µg/mL
same,Rifabutin MIC,"[1]; ARLG-1314, MHII",6.25 µg/mL
same,Rifabutin MIC,"[1]; ARLG-1314, RPMI",< 0.05 µg/mL
same,Rifabutin MIC,"[1]; ARLG-1777, MHII",6.25 µg/mL
same,Rifabutin MIC,"[1]; ARLG-1777, RPMI",3.13 µg/mL
same,Rifabutin MIC,"[1]; ARLG-1915, MHII",3.13 µg/mL
same,Rifabutin MIC,"[1]; ARLG-1915, RPMI",0.1 µg/mL
same,Rifabutin MIC,"[1]; ATCC 17978, MHII",3.12 µg/mL
same,Rifabutin MIC,"[1]; ATCC 17978, RPMI",< 0.05 µg/mL
same,MIC,"[1]; Acinetobacter baumannii, A. baumannii (strain not named), MHII",4 µg/mL
same,MIC,"[1]; Acinetobacter baumannii, A. baumannii (strain not named), RPMI with serum",0.031 µg/mL
same,MIC,"[1]; Acinetobacter baumannii, A. baumannii VA-AB21, MHII",3.12 µg/mL
same,MIC,"[1]; Acinetobacter baumannii, A. baumannii VA-AB21, RPMI",0.391 µg/mL
same,MIC50,"[1]; Acinetobacter baumannii, CAMHB",3.13 µg/mL
same,MIC90,"[1]; Acinetobacter baumannii, CAMHB",6.25 µg/mL
same,MIC50,"[1]; Acinetobacter baumannii, RPMI",0.39 µg/mL
same,MIC90,"[1]; Acinetobacter baumannii, RPMI",3.13 µg/mL
same,MIC,"[1]; Acinetobacter baumannii, ATCC17978, A. baumannii ATCC17978 and HUMC1, MHII",2 µg/mL
same,MIC,"[1]; Acinetobacter baumannii, ATCC17978, A. baumannii ATCC17978 and HUMC1, RPMI",< 0.0625 µg/mL
same,fold lower MIC in RPMI than in Mueller-Hinton-based medium (CAMHB),"[1]; Acinetobacter baumannii, up to",up to 200 fold
same,Rifabutin MIC,"[1]; HUMC6, MHII",25 µg/mL
same,Rifabutin MIC,"[1]; HUMC6, RPMI",3.13 µg/mL
same,Rifabutin MIC,"[1]; HUMC10, MHII",12.5 µg/mL
same,Rifabutin MIC,"[1]; HUMC10, RPMI",< 0.05 µg/mL
same,Rifabutin MIC,"[1]; LAC -- 4, MHII",0.78 µg/mL
same,Rifabutin MIC,"[1]; LAC -- 4, RPMI",1.56 µg/mL
same,Rifabutin MIC,"[1]; LACUSC-01, MHII",6.25 µg/mL
same,Rifabutin MIC,"[1]; LACUSC-01, RPMI",< 0.05 µg/mL
same,Rifabutin MIC,"[1]; NIH1, MHII",3.13 µg/mL
same,Rifabutin MIC,"[1]; NIH1, RPMI",3.13 µg/mL
same,Rifabutin MIC,"[1]; UH118, MHII",3.13 µg/mL
same,Rifabutin MIC,"[1]; UH118, RPMI",0.2 µg/mL
same,Rifabutin MIC,"[1]; UH516, MHII",> 25 µg/mL
same,Rifabutin MIC,"[1]; UH516, RPMI",> 25 µg/mL
same,Rifabutin MIC,"[1]; UH2207, MHII",6.25 µg/mL
same,Rifabutin MIC,"[1]; UH2207, RPMI",3.13 µg/mL
same,Rifabutin MIC,"[1]; UH6507, MHII",3.13 µg/mL
same,Rifabutin MIC,"[1]; UH6507, RPMI",0.39 µg/mL
same,Rifabutin MIC,"[1]; VA-AB21, MHII",3.12 µg/mL
same,Rifabutin MIC,"[1]; VA-AB21, RPMI",0.391 µg/mL
same,Rifabutin MIC,"[1]; VA-AB74, MHII",6.25 µg/mL
same,Rifabutin MIC,"[1]; VA-AB74, RPMI",3.13 µg/mL
same,efficacy RBT vs RIF,[2],no difference in efficacy
same,IC50,"[3]; ATCC17978, 24 h, ATCC 17978, RPMI + 50% Serum",< 0.847 nM
same,IC50,"[3]; ATCC17978, ATCC 17978, RPMI + 50% Serum",< 0.847 nM
same,IC50,"[3]; ATCC17978, ATCC 17978, RPMI",24 nM
same,survival,"[4]; 5 mg/kg for 3 days, […]",about 80%
same,survival,[4]; [15],significantly improved
same,survival,[4]; [16],significantly improved survival
same,lung CFUs,[4]; [15],significantly lower CFUs in the lung
same,lung CFUs,[4]; [16],significantly reduced lung CFUs; also recorded: significantly lower CFUs in the lung
same,survival,"[4]; 10 mg/kg/day for 3 days, oral gavage, listed as RBT",modest improvement in survival; also recorded: modest survival benefit
same,reduction in the median CFUs in the blood as compared to RIF-treated mice,"[4]; 10 mg/kg/day for 3 days, at 24 hours",7 log
same,CFUs in blood (vs RIF),"[4]; C3H mice, 10 mg/kg/daily for 3 days, oral gavage, blood at 24 hrs",significant reduction in CFUs
same,improvement of survival rates,"[4]; murine pneumonia, 5 mg/kg",over 70%
same,bacterial burden,"[4]; murine pneumonia, 5 mg/kg, day 7 post-infection",about 2 Log10(CFU/mg lung)
same,MIC,[5]; MHII,25 µg/mL
same,MIC,[5]; RPMI,12.5 µg/mL
same,IC50,"[6]; HUMC1, 24 h, HUMC1, RPMI + 50% Serum",< 0.847 nM
same,IC50,"[6]; HUMC1, HUMC1, RPMI + 50% Serum",< 0.847 nM
same,IC50,"[6]; HUMC1, HUMC1, RPMI",1 nM
same,inhibition of GFP fluorescence,[7],less inhibition of GFP fluorescence
same,MIC,[8]; MHII,0.012 µg/mL
same,MIC,[8]; RPMI,0.025 µg/mL
same,Mutation Frequency,"[9]; A. baumannii ABNIH1, MHII",8.85E−09
same,Mutation Frequency,"[9]; A. baumannii ABNIH1, TSA",5.95E−09
same,Mutation Frequency,"[9]; A. baumannii ATCC17978, MHII",5.72E−09
same,Mutation Frequency,"[9]; A. baumannii ATCC17978, TSA",8.49E−10
same,Mutation Frequency,"[9]; A. baumannii HUMC1, MHII",2.20E−09
same,Mutation Frequency,"[9]; A. baumannii HUMC1, TSA",1.28E−08
same,Mutation Frequency,"[9]; A. baumannii LAC-4, MHII",1.29E−08
same,Mutation Frequency,"[9]; A. baumannii LAC-4, TSA",7.41E−09
same,efficacy vs RIF,[10],more effective as compared to RIF
same,Mutation Frequency,[11],1.10E−07
same,Mutation Frequency,[12],3.89E−08
same,Specificity HepG2 (CC50/IC50),[13],148.31
same,"protection, multiple doses",[14]; G. mellonella infection model,protective at significantly lower doses as compared to RIF
same,lowest efficacious dose (efficacious at doses as low as),"[14]; Galleria mellonella, dose-response",0.1 mg/kg
